The record followed here is PMC8474119, “Discovery and SAR Evolution of Pyrazole Azabicyclo[3.2.1]octane Sulfonamides as a Novel Class of Non-Covalent N-Acylethanolamine-Hydrolyzing Acid Amidase (NAAA) Inhibitors for Oral Administration” (Journal of Medicinal Chemistry, 2021).

Where only a bound is given, the exact number is not on record here.

One data set concerns the target T1, h-NAAA (Homo sapiens, UniProt Q02083).
T1 construct: made in house; host or cells: HEK-293 cells stably overexpressing human NAAA; enzyme-enriched (lysosomal) lysate
T1 sequence (Q02083 29-125 limits assumed): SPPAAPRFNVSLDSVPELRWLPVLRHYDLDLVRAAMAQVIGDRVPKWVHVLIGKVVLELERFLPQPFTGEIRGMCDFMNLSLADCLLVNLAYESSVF
T1 sequence (Q02083 126-359 limits assumed): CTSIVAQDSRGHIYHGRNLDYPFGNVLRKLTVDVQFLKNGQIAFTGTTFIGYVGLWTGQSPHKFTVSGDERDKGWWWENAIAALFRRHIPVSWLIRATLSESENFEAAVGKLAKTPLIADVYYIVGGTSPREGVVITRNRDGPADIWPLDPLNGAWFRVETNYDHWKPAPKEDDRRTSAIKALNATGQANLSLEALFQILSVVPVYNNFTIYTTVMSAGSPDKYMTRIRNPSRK
The data set is described as follows: Fluorogenic human-NAAA assay (h-NAAA, fluo.). It is filed as biochemical. The following applies: for LipE: LipE = pIC50 – c Log P (h-NAAA); for pIC50: Table S1; for pIC50 / IC50: h-NAAA (fluo.); for IC50: mean ± SD (n ≥ 3), n.a.: not active @50 μM (<10% inhibition). As to the method: Human recombinant proteins were obtained from HEK-293 stable overexpressing human NAAA, AC, and FAAH-1 cell lines, respectively. Cells were grown in Dulbecco’s modified Eagle medium (DMEM) containing 10% FBS, 1% glutamine, 1 mM sodium pyruvate, and 500 μg/mL geneticin (G418). To obtain a high-density cell proliferation, h-NAAA-HEK-293 cells were grown in BelloCell-500 bottle, a compact bioreactor. On the contrary, h-AC and h-FAAH-1-HEK-293 cells were grown in 150 mm dishes and scraped off with cold PBS 1× pH 7.4 at 80% confluence. Cell pellets were collected and stored at −80 °C until protein preparation.
HEK-293 cells stably transfected with the human NAAA or human AC coding sequences were used as the enzyme source. Cells were suspended in 20 mM Tris-HCl (pH 7.4) with 0.32 M sucrose, sonicated, and centrifuged at 800g for 30 min at 4 °C. Supernatants were then centrifuged at 12,000g for 30 min at 4 °C. Pellets were resuspended in PBS buffer (pH 7.4) and subjected to three freeze-thaw cycles at −80 °C. The suspension was finally centrifuged at 105,000g for 1 h at 4 °C, supernatants were collected, protein concentration was measured, and samples were aliquoted and stored at −80 °C until use.
The assay was run in 96-well microplates (Black OptiPlate-96 F; PerkinElmer, Massachusetts, USA), in a total reaction volume of 200 μL. h-NAAA protein preparation (4 μg) was preincubated for 30 min with various concentrations of test compounds or vehicle control (DMSO 5%) in 100 mM citrate/phosphate buffer (pH 4.5) containing 3.0 mM DTT, 0.1% NP40, 0.05% BSA, and 150 mM NaCl. The background (no activity) samples were prepared using assay buffer without h-NAAA and DMSO (5%). N-(4-methyl-2-oxo-chromen-7-yl)-hexadecanamide (PAMCA)[60] was used as a substrate (2 μM) and the reaction was carried out for 50 min at 37 °C. Fluorescence was measured with EnVision 2014 Multilabel Reader (PerkinElmer, Massachusetts, USA) using an excitation wavelength of 355 nm and an emission of 460 nm. IC50 values were calculated by non-linear regression analysis of log[concentration]/response curves generated with mean replicate values using a four-parameter Hill equation curve fitting with GraphPad Prism 5 (GraphPad Software Inc., CA, USA).

Data set [1] can be described thus: Aqueous kinetic solubility assay. Type of data set: physicochemical. Particulars: PBS buffer, pH 7.4, n = 3. As for the experimental part:
The aqueous kinetic solubility was determined from a 10 mM DMSO stock solution of test compound (39 or 50) in PBS buffer at pH 7.4. The study was performed by incubating an aliquot of 10 mM DMSO stock solution in PBS (pH 7.4) to a target concentration of 250 μM (2.5% DMSO). The incubation was carried out under shaking at 25 °C for 24 h, followed by centrifugation at 21,100g for 30 min. The supernatant was further diluted (4:1) with CH3CN, and the dissolved test compound was quantified by UV at 215 nm on a Waters ACQUITY UPLC-MS system consisting of a single quadrupole detector (SQD) mass spectrometer equipped with an electrospray ionization interface and a photodiode array detector (PDA) from Waters Inc. (Milford, MA, USA). Electrospray ionization in positive mode was used in the mass scan range 100–500 Da. The PDA range was 210–400 nm. The analyses were run on an ACQUITY UPLC BEH C18 column (50 × 2.1 mm ID, particle size 1.7 μm) with a VanGuard BEH C18 precolumn (5 × 2.1 mm ID, particle size 1.7 μm), using 10 mM NH4OAc in H2O at pH 5 adjusted with AcOH (A) and 10 mM NH4OAc in CN–H2O (95:5) at pH 5 (B) as the mobile phase.

As usually defined, the pIC50 is the negative decadic logarithm of the IC50, by convention in mol/L. As a reminder, the IC50 is the concentration that inhibits the measured activity by half. Higher therefore signals weaker potency in that assay. One may read the kinetic solubility as the concentration staying in solution when a stock, usually in DMSO, is diluted into the medium. `CCCCc1ccc(O[C@H]2C[C@H]3CC[C@@H](C2)N3S(=O)(=O)c2c(C)n[nH]c2C)cc1` [Compound 39, (1R,3r,5S)-3-(4-Butylphenoxy)-8-((3,5-dimethyl-1H-pyrazol-4-yl)sulfonyl)-8-azabicyclo[3.2.1]octane]: on h-NAAA, the LipE is 3.84, the pIC50 was found to be 7.64 and the IC50 amounted to 23 ± 4 nM. Further, the kinetic solubility at 24 h in data set [1] was less than 1 µM.
At h-NAAA, `CCOCc1cnc(O[C@H]2C[C@H]3CC[C@@H](C2)N3S(=O)(=O)c2c(C)n[nH]c2C)cn1` [Compound 50, (1R,3r,5S)-8-((3,5-Dimethyl-1H-pyrazol-4-yl)sulfonyl)-3-((5-(ethoxymethyl)pyrazin-2-yl)oxy)-8-azabicyclo[3.2.1]octane] came in with a LipE of 6.83, a pIC50 of 7.38 and an IC50 of 42 ± 2 nM. In data set [1], the kinetic solubility at 24 h was greater than 250 µM.
